In patent EP0314011A2, “Purine derivatives” (F. HOFFMANN-LA ROCHE AG, priority 1987, dated 1989):

Test system: HTLV III
Assay: Anti-HIV activity: p24 antigen capture assay in HTLV III-infected C8166 cells
Assay type: cell-based
Settings: concentration giving 50% protection; C8166 cells (human CD4+ T-lymphoblast line) infected with 10-fold TCD50 of virus; 72 h incubation at 37°C; viral protein 24 antigen in supernatant
Procedure: Die Aktivität der Purinderivate der vorliegenden Erfindung gegen HIV kann wie folgt nachgewiesen werden.
In diesem Versuch verwendet man HTLV III, gezüchtet in C8166-Zellen (eine menschliche CD4⁺ T-Lymphoblastenlinie), RPM1 1640 Medium mit Bicarbonatpuffer, Antibiotika und l0%igem fötalem Rinderserum. Eine Zellensuspension wird mit der 10-fachen TCD₅₀ des Virus infiziert. Man lässt 90 Minuten bei 37°C adsorbieren. Die Zellen werden mit dem Medium gewaschen. Der Versuch wird in 6 ml Gewebekulturröhrchen durchgeführt. Jedes Röhrchen enthält 2 x 10⁵ infizierte Zellen in 1,5 ml Medium. Es werden 15 µl einer Lösung der Substanz in wässrigem Medium oder in DMSO zugesetzt. Nach 72 Stunden Inkubation bei 37°C in einer feuchten 5% CO₂ enthaltenden Atmosphäre werden die Kulturen zentrifugiert. Ein aliquoter Teil des Ueberstandes wird solubilisiert und einem Antigenabfangversuch unterworfen unter Verwendung eines primären Antiserums mit besonderer Reaktivität gegen virales Protein 24 und eines Meerrettich-Peroxidase-Detektionssystems. Die Farbenerzeugung wird spektrophotometrisch gemessen und in Abhängigkeit der Konzentration der Testsubstanz dargestellt. Die einen 50%igen Schutz erzeugende Konzentration (IC₅₀) wird ermittelt. Die Resultate sind in der folgenden Tabelle angegeben: […]

SMILES	IC50
Nc1nc(Cl)nc2c1ncn2[C@@H]1O[C@H](CO)C[C@@H]1F [Beispiel 1, 6-Amino-2-chlor-9-(2,3-dideoxy-2-fluor-β-D-threopentofuranosyl)-9H-purin]	1 µM
[N-]=[N+]=Nc1nc(N)c2ncn([C@@H]3O[C@H](CO)C[C@@H]3F)c2n1 [Beispiel 2, 6-Amino-2-azido-9-(2,3-dideoxy-2-fluor-β-D-threopentofuranosyl)-9H-purin]	10 µM
Nc1nc(N)c2ncn([C@@H]3O[C@H](CO)C[C@@H]3F)c2n1 [Beispiel 3, 2,6-Diamino-9-(2,3-dideoxy-2-fluor-β-D-threopentofuranosyl)-9H-purin]	1 µM
